Experimental data: patent publication US6335008B1, “Hybrid genes incorporating a DNA fragment containing at least one gene encoding an insecticidal protein and a gene encoding a glutamine synthase inhibitor, plasmids, transformed cyanobacteria expressing such proteins and method for use as biocontrol agent” (priority 1987, dated 2002)

How the values were obtained:
[1] = system: Synechocystis 6803 transformed with pWP3210; test: Growth on BG-11 agar plate containing PPT or Bialaphos, bar gene transformant; type: cell-based; conditions: Bialaphos at 5 micrograms/ml
Procedure: (§1) Dilution of transformed Synechocystis 6803 was plated on BG-11 agar plate containing PPT (Table 4).

[2] = system: Synechocystis 6803 transformed with pKW 1188; test: Growth on BG-11 agar plate containing PPT or Bialaphos, vector transformant; type: cell-based; conditions: Bialaphos at 5 micrograms/ml
Procedure: as §1

C[C@H](NC(=O)[C@H](C)NC(=O)[C@@H](N)CCP(C)(=O)O)C(=O)O [Bialaphos]
growth on Bialaphos [1]: neither of these two transformants grow | growth on Bialaphos [2]: neither of these two transformants grow
